PubChem BioAssay (NCI)
Several values for one entry are separate records, joined by “and”; a condition that tells them apart may be missing. Identical values can stand only once.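 48-hour exposure; five concentrations; linearly interpolated endpoints. GI50 is the concentration that inhibits growth by half. TGI is the concentration that stops growth completely.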

What was measured:
Test in all cases: growth of human tumour cells (NCI), 48 h
SK-OV-3 ovarian = system: SK-OV-3 ovarian
KM12 colon = system: KM12 colon
SK-MEL-28 melanoma = system: SK-MEL-28 melanoma
SF-295 CNS = system: SF-295 CNS
OVCAR-5 ovarian = system: OVCAR-5 ovarian
M14 melanoma = system: M14 melanoma
NCI-H460 lung = system: NCI-H460 lung
MDA-MB-231 breast = system: MDA-MB-231 breast
NCI-H226 lung = system: NCI-H226 lung
HOP-92 NSCLC = system: HOP-92 NSCLC

SMILES | GI50 (SK-OV-3 ovarian) | TGI (SK-OV-3 ovarian) | GI50 (KM12 colon) | TGI (KM12 colon) | GI50 (SK-MEL-28 melanoma) | TGI (SK-MEL-28 melanoma) | GI50 (SF-295 CNS) | TGI (SF-295 CNS) | GI50 (OVCAR-5 ovarian) | TGI (OVCAR-5 ovarian) | GI50 (M14 melanoma) | TGI (M14 melanoma) | GI50 (NCI-H460 lung) | TGI (NCI-H460 lung) | GI50 (MDA-MB-231 breast) | TGI (MDA-MB-231 breast) | GI50 (NCI-H226 lung) | TGI (NCI-H226 lung) | TGI (HOP-92 NSCLC) | GI50 (HOP-92 NSCLC)
CNc1ccc2nc3ccc(=[N+](C)C)cc-3sc2c1 | 4.29 µM and 3.81 µM | 18.7 µM and 19.1 µM | 1.15 µM and 0.651 µM | 17.6 µM and 11.6 µM | 4250 nM and 1550 nM | 14.8 µM and 9.27 µM | 1.35 µM and 0.411 µM | 10.3 µM and 3.22 µM | 2.85 µM and 0.514 µM | 6.86 µM and 4.31 µM | 1200 nM and 347 nM | 12 µM and 1.5 µM | 2320 nM and 879 nM | 18.5 µM and 11.5 µM | 426 nM and 345 nM | 5.59 µM and 3.63 µM | 2310 nM and 2530 nM | 10.8 µM and 12.4 µM | 29.8 µM and 5.06 µM | –
COc1cccc(C2CC(C)(N3CCCC3)Oc3cc4c(cc32)OCO4)c1O (configuration not stated) | – | > 100 µM | – | > 100 µM | – | > 51.5 µM | – | 59.6 µM | – | > 100 µM | – | > 83.8 µM | – | > 82.1 µM | – | 80.5 µM | – | 55.9 µM | > 100 µM | –
C=C1CC2(OC1=O)C(=O)N(CCCCCCCN1C(=O)C3(CC(=C)C(=O)O3)c3ccccc31)c1ccccc12 (configuration not stated) | 9.97 µM | 37.8 µM | 3.39 µM | 11.6 µM | 1940 nM | 7.3 µM | 10.2 µM | 25 µM | 7.09 µM | 14.2 µM | 1450 nM | 5.6 µM | 2900 nM | 12.3 µM | 1180 nM | 3.49 µM | 1000 nM | 2.76 µM | 3.64 µM | 1030 nM
CC(=O)n1c(COS(C)(=O)=O)nc2ccccc21 | – | – | – | > 100 µM | – | > 100 µM | – | > 100 µM | – | > 100 µM | – | > 100 µM | – | > 100 µM | – | > 100 µM | – | > 100 µM | > 100 µM | –
COC(=O)N[C@H]1CCc2c(Br)c(OC)c(OC)c(OC)c2-c2ccc(SC)c(=O)cc21 | < 0.01 µM | > 100 µM | < 0.01 µM | 10.6 µM | 6990 nM | 25.1 µM | – | – | < 0.01 µM | > 39.6 µM | < 10 nM | 8.53 µM | < 10 nM | 10.7 µM | < 10 nM | 14 µM | < 10 nM | 10.8 µM | 5.17 µM | < 17.1 nM
N#Cc1c(Sc2ccccc2N)cccc1Sc1ccccc1N | – | – | 66.7 µM | – | – | – | 84 µM | – | – | – | 62600 nM | – | 40300 nM | – | 49800 nM | – | 96800 nM | – | – | 31000 nM
O=C(Oc1ccc(Cl)cc1Cl)c1ccccc1Nc1ccnc(C(F)(F)F)c1 | – | – | 3.69 µM | 21.1 µM | – | – | 15.6 µM | 37.2 µM | 7.9 µM | 22 µM | 1920 nM | 4.93 µM | 4260 nM | 33.8 µM | 2240 nM | 7.92 µM | 3460 nM | 18.6 µM | 43.4 µM | 11600 nM
CN(C)c1cccc2c(S(=O)(=O)N[C@H]3CC[C@H]4[C@@H]5CCc6cc(O)ccc6[C@H]5CC[C@]34C)cccc12 | 3.83 µM | 74.3 µM | – | – | 2200 nM | 5.89 µM | 1.02 µM | 2.7 µM | 3.09 µM | 13.2 µM | 3700 nM | 18.3 µM | 2000 nM | 4.52 µM | 1750 nM | 4.41 µM | 3020 nM | 11.2 µM | 7.64 µM | 1670 nM
